Key:
[1] = system: HMPV clinical isolate A2 strain TN 94-49; test: HMPV antiviral assay, Method 1 (LLC-MK2 cells, ATP-Lite); format: cell-based; conditions: human metapneumovirus, hMPV A2 TN/94-49, LLC-MK2 cells
Procedure: In vitro HMPV antiviral activity was evaluated using the clinical isolate A2 strain TN 94-49 (obtained from Dr. John Williams, Vanderbilt University, Tennessee) and LLC-MK2 cells (ATCC #CCL-7), an immortalized kidney epithelial cell line from Macaca mulatta. Compounds were resuspended in dimethyl sulfoxide (DMSO) at 10 mM, serially diluted and added to a 384-well source plate. Subsequently, the compounds were diluted and transferred onto 384-well assay plates using the Echo-650 automated liquid handling system (Beckman Coulter, Indiana). The test compounds were assessed in duplicate at a top concentration of 2 μM followed by 2.5-fold serial dilutions to give a total of 10 concentration points. DMSO control wells were also included on the assay plates and were either infected or not, acting as positive and negative controls. A2 TN 94-49 virus infections were performed in-suspension with LLC-MK2 cells. The cells were washed twice with PBS and removed from the cell-culture flask with 0.25% trypsin-EDTA (Thermo Fisher Scientific, MA). The trypsin-EDTA was inactivated by resuspending in 2% fetal bovine serum (FBS) and OptiMEM (ThermoFisher Scientific, MA) containing 1% penicillin-streptomycin. Cells were pelleted by centrifuging for 5 minutes at 800 rpm, the supernatant was removed, and cells were re-suspended and washed in PBS plus 100 μg/mL CaCl2). This step was performed twice. Cells were then re-suspended in serum-free (SF)-OptiMEM containing 4 μg/mL TPCK-Trypsin (Sigma Aldrich, MO), 1% penicillin-streptomycin (ThermoFisher Scientific, MA) and 100 μg/mL CaCl2). Cells were counted and seeded at a density of 5,000 cells/well, 12.5 μL/well. Virus infections were done at a multiplicity of infection (MOI) of 0.005 with 12.5 μL added per well. Virus infections were performed in infection media which contained SF-OptiMEM, 100 μg/mL CaCl2) and 1% penicillin-streptomycin. HMPV viral stocks are suspended in infection media+5% glycerol, thus an equal volume of infection media+5% glycerol was added to uninfected wells to equalize the final % glycerol across all wells of the assay plate. The final concentration of TPCK-trypsin was 2 μg/mL. The assay plates were incubated at 37° C., 5% CO2 for 7 days. After 7 days incubation, 12.5 μL of ATP-Lite (PerkinElmer, MA) was added to each well and the raw luminescence values were determined using the Envision 2104 (Perkin Elmer, MA). The average of the raw luminescence values for the cells and virus only positive control wells was subtracted from all conditions tested and the percent cell health was determined by dividing these values by the average of the cells only negative control wells. EC50 values were then calculated by non-linear regression using a four-parameter curve logistic equation. The curve fit model employed was XLFit Dose Response One Site Model 200: y=(A+(B/(1+((x/C)^D)))), where A is the minimum y value, B is the maximum y value, C is the log EC50 value, and D is the slope factor.

[2] = system: HMPV clinical isolate A2 strain TN 94-49; test: HMPV antiviral assay, Method 2 (LLC-MK2 cells with CP-100-356, ATP-Lite); format: cell-based; conditions: human metapneumovirus
In short: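 LLC-MK2 rhesus kidney cells (5,000/well) infected in suspension with HMPV A2 TN 94-49 at MOI 0.16, in serum-free medium with final 2 μg/mL TPCK-trypsin and 2 μM CP-100-356. Compounds tested in duplicate from 200 nM, 2.5-fold, 10 points; 7 days at 37 °C. Cell health by ATP-Lite luminescence; EC50 by four-parameter fit.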

[3] = hMPV A2 TN/94-49, LLC-MK2 cells with CP-100-356, Method 2
[4] = 168 h, hMPV A2 TN/94-49, LLC-MK2 cells with 4 μM CP-100-356, 7 days, ATP-Lite

Compound	EC50 [1] [µM]	further results
COc1cc(C(=O)NC[C@](O)(c2cc3c(c(-c4ccc(C)c(C(F)(F)F)c4)n2)OC[C@]3(C)C(N)=O)C2CC2)cc2cn(C3CC3)nc12 [Example 56]	> 0.5	
[2H]C([2H])([2H])c1nc2c(OC(F)F)cc(C(=O)NC[C@](O)(c3cc4c(c(-c5cc(Cl)c(F)cc5F)n3)OC[C@]4(C)C(N)=O)C3CC3)cc2cc1Br [Example 11]	> 0.5	
COc1cc(C(=O)NC[C@@](O)(c2cc3c(c(-c4cc(F)c(F)c(F)c4Cl)n2)OC[C@]3(C)C(N)=O)C(F)(F)F)cc2cn(C3CC3)nc12 [Example 58]	> 0.5	
Cc1nc2c(OC(F)F)cc(C(=O)NC[C@@](O)(c3cccc(F)c3)c3cc4c(c(-c5cc(Cl)c(F)cc5F)n3)OC[C@]4(C)C(N)=O)cc2cc1Br [Example 135]	> 0.5	
COc1cc(C(=O)NCC(O)(c2cc3c(c(-c4cc(Cl)c(F)cc4F)n2)OC[C@]3(C)C(N)=O)c2cc3ccccc3s2)cc2cn(C3CC3)nc12 (stereo partly shown) [Example 469]	> 0.5	
COc1cc(C(=O)NC[C@@](O)(c2ccc(F)cc2)c2cc3c(c(-c4ccc5c(c4Cl)OC(F)(F)O5)n2)OC[C@]3(C)C(N)=O)cc2cc(C(F)(F)F)cnc12 [Example 26]	> 0.5	
COc1cc(C(=O)NC[C@](O)(c2cc3c(c(-c4ccc5ccsc5c4)n2)OC[C@]3(C)C(N)=O)C2CC2)cc2cn(C3CC3)nc12 [Example 48]	> 0.5	
COc1cc(C(=O)NC[C@](O)(c2cc3c(c(-c4ccc5c(c4Cl)OC(F)(F)O5)n2)OC[C@]3(C)C(N)=O)C(F)(F)F)cc2cn(C3CC3)nc12 [Example 52]	> 0.5	
COc1cc(C(=O)NC[C@](O)(c2cc3c(c(-c4ccc(F)c(CO)c4F)n2)OC[C@]3(C)C(N)=O)C2CC2)cc2cn(C3CC3)nc12 [Example 72]	> 0.5	
COc1cc(C(=O)NC[C@](O)(c2cc3c(c(-c4cc(C)cc(F)c4F)n2)OC[C@]3(C)C(N)=O)C2CC2)cc2cn(C3CC3)nc12 [Example 49]	> 0.5	
COc1cc(C(=O)NC[C@@](O)(c2cccc(C(C)O)c2)c2cc3c(c(-c4cccc(Cl)c4Cl)n2)OC[C@]3(C)C(N)=O)cc2cn(C3CC3)nc12 (stereo partly shown) [Example 495]		EC50 [2, 3]: > 0.2 µM
COc1cc(C(=O)NC[C@](O)(c2cc3c(c(-c4ccnc(Cl)c4C)n2)OC[C@]3(C)C(N)=O)C2CC2)cc2cn(C3CC3)nc12 [Example 815]		EC50 [2, 4]: < 0.2 µM
C[C@]1(C(N)=O)COc2c1cc([C@@](O)(CNC(=O)c1cc(OC3CC3)c3ncc(Cl)cc3c1)c1ccccc1)nc2-c1cc(F)c(F)cc1F [Example 197]		EC50 [2, 3]: < 0.2 µM
COc1nccc(-c2nc([C@@](O)(CNC(=O)c3cc(OC)c4nc(C5CC5)oc4c3)C(F)(F)F)cc3c2OC[C@]3(C)C(N)=O)c1Cl [Example 545]		EC50 [2, 3]: < 0.2 µM
COc1cc(C(=O)NC[C@@](O)(c2ccccc2)c2cc3c(c(-c4cc(C(F)(F)F)c(F)cc4F)n2)OC[C@]3(C)C(N)=O)cc2cn(C(F)F)nc12 [Example 304]		EC50 [2, 3]: < 0.2 µM
C[C@]1(C(N)=O)COc2c1cc([C@@](O)(CNC(=O)c1cc(OC3CC3)c3ncc(Cl)cc3c1)C1CC1)nc2-c1cc(Cl)c(F)cc1F [Example 226]		EC50 [2, 3]: < 0.2 µM
COc1cc(C(=O)NC[C@](O)(c2cc3c(c(-c4ccn5nc(C)cc5c4)n2)OC[C@]3(C)C(N)=O)C2CC2)cc2cn(C3CC3)nc12 [Example 838]		EC50 [2, 4]: > 0.2 µM
Cc1nc2c(OC(F)F)cc(C(=O)NC[C@](O)(c3cc4c(c(-c5cc(Cl)c(F)cc5F)n3)OC[C@]4(C)C(N)=O)c3ccccc3F)cc2cc1Br [Example 139]		EC50 [2, 3]: > 0.2 µM

Now from value to molecule, other results behind:

EC50 [1] [µM]	Compound	further results
< 0.5	COc1cc(C(=O)NC[C@@](O)(c2ccccc2)c2cc3c(c(-c4cc(Cl)c(F)cc4F)n2)OC[C@]3(C)C(N)=O)cc2cc(C(F)(F)F)cnc12 [Example 83]	
> 0.5	COc1cc(C(=O)NC[C@@](O)(c2cc3c(c(-c4cc(Cl)c(F)cc4F)n2)OC[C@]3(C)C(N)=O)c2cnn[nH]2)cc2cn(C3CC3)nc12 [Example 181]	
< 0.5	COc1cc(C(=O)NC[C@@](O)(c2ccccc2)c2cc3c(c(-c4cc(C(F)F)c(F)cc4F)n2)OC[C@]3(C)C(N)=O)cc2cn(C3CC3)nc12 [Example 288]	
< 0.5	COc1cc(C(=O)NC[C@@](O)(c2ccccc2)c2cc3c(c(-c4ccc5c(c4Cl)OC(F)(F)O5)n2)OC[C@]3(C)C(N)=O)cc2cc(C3CC3)nn12 [Example 254]	
< 0.5	[2H]c1nc2c(OC)cc(C(=O)NC[C@](O)(c3cc4c(c(-c5cc(F)c(F)cc5F)n3)OC[C@]4(C)C(N)=O)C3CC3)cc2cc1Br [Example 30]	
< 0.5	[2H]c1c([2H])c([2H])c([C@](O)(CNC(=O)c2cc(OC)c3nn(C4CC4)cc3c2)c2cc3c(c(-c4cc(Cl)c(F)cc4F)n2)OC[C@]3(C)C(N)=O)c([2H])c1[2H] [Example 169]	
< 0.5	C[C@]1(C(N)=O)COc2c1cc([C@@](O)(CNC(=O)c1cc(OC(F)F)c3nn(C4CC4)cc3c1)C1CC1)nc2-c1ccc(F)c(F)c1Cl [Example 39]	
< 0.5	C[C@]1(C(N)=O)COc2c1cc([C@@](O)(CNC(=O)c1cc(OC(F)F)c3nn(C4CC4)cc3c1)C1CC1)nc2-c1ccc(F)c(Cl)c1F [Example 40]	
< 0.5	Cc1nc2ccc(C(=O)NC[C@@](O)(c3cccc(F)c3)c3cc4c(c(-c5ccc6c(c5Cl)OC(F)(F)O6)n3)OC[C@]4(C)C(N)=O)cc2o1 [Example 284]	
< 0.5	COc1cc(C(=O)NC[C@@](O)(c2ccccc2)c2cc3c(c(-c4ccc(F)c(Cl)c4Cl)n2)OC[C@]3(C)C(N)=O)cc2cn(C3CC3)nc12 [Example 257]	
< 0.5	COc1cccc([C@](O)(CNC(=O)c2cc(OC)c3nc(C)c(Cl)cc3c2)c2cc3c(c(-c4cc(Cl)c(F)cc4F)n2)OC[C@]3(C)C(N)=O)c1 [Example 164]	
< 0.5	[2H]C([2H])([2H])c1nc2c(OC)cc(C(=O)NC[C@](O)(c3cc4c(c(-c5ccc(F)c(Cl)c5Cl)n3)OC[C@]4(C)C(N)=O)C3CC3)cc2cc1Br [Example 24]	
< 0.5	COc1cc(C(=O)NC[C@@](O)(c2ccccc2)c2cc3c(c(-c4cc(C(F)(F)F)ccc4F)n2)OC[C@]3(C)C(N)=O)cc2cc(C3CC3)nn12 [Example 149]	
< 0.5	COc1cc(C(=O)NCC(O)(c2csc(Cl)c2)c2cc3c(c(-c4cc(Cl)c(F)cc4F)n2)OC[C@]3(C)C(N)=O)cc2cn(C3CC3)nc12 (stereo partly shown) [Example 471]	
< 0.5	[2H]C([2H])([2H])c1nc2ccc(C(=O)NC[C@@](O)(c3ccccc3)c3cc4c(c(-c5cc(Cl)c(F)cc5F)n3)OC[C@]4(C)C(N)=O)cc2o1 [Example 87]	
< 0.5	[2H]C([2H])([2H])c1nc2c(OC)cc(C(=O)NC[C@@](O)(c3ccccc3)c3cc4c(c(-c5cc(Cl)c(F)cc5F)n3)OC[C@]4(C)C(N)=O)cc2s1 [Example 155]	
< 0.5	COc1cc(C(=O)NC[C@@](O)(c2ccsc2)c2cc3c(c(-c4cc(Cl)c(F)cc4F)n2)OC[C@]3(C)C(N)=O)cc2cn(C3CC3)nc12 [Example 173]	
< 0.5	COc1cc(C(=O)NC[C@@](O)(c2ccsc2)c2cc3c(c(-c4cc(Cl)c(F)cc4F)n2)OC[C@]3(C)C(N)=O)cc2cn(C3(F)CC3)nc12 [Example 175]	
< 0.5	C[C@]1(C(N)=O)COc2c1cc([C@@](O)(CNC(=O)c1cc(OC3CC3)c3nn(C4CC4)cc3c1)c1ccccc1)nc2-c1ccc2c(c1Cl)OC(F)(F)O2 [Example 252]	
< 0.5	COc1cc(C(=O)NC[C@@](O)(c2ccccc2)c2cc3c(c(-c4cc(Cl)c(F)cc4F)n2)OC[C@]3(C)C(N)=O)cc2oc(C)nc12 [Example 84]	
< 0.5	COc1cc(C(=O)NC[C@@](O)(c2ccccc2)c2cc3c(c(-c4cc(C(F)(F)F)ccc4F)n2)OC[C@]3(C)C(N)=O)cc2cn(C(F)F)nc12 [Example 148]	
< 0.5	[2H]C([2H])([2H])c1cc2cc(C(=O)NC[C@](O)(c3cc4c(c(-c5cc(Cl)c(F)cc5F)n3)OC[C@]4(C)C(N)=O)C3CC3)cc(OC)c2nc1C([2H])([2H])[2H] [Example 29]	

— US20240368174A1, “Antiviral Heterocyclic Compounds” (Enanta Pharmaceuticals, Inc., priority 2023, published 2024)
